The target in one experiment is human orexin-1 receptor (Homo sapiens (Human), UniProt O43613). The experiment is described as follows: In vitro assay: intracellular calcium measurements (FLIPR), antagonistic activity. It counts as cell-based. Particulars: CHO cells, 3 nM orexin-A, compound incubation 120 min; marked values are geometric means of n = 2-6; read-out: IC50 OX1. On the technique in general: A change in cytosolic calcium serves as a functional read-out for many receptors and channels.
Sequence of human orexin-1 receptor (O43613 whole entry): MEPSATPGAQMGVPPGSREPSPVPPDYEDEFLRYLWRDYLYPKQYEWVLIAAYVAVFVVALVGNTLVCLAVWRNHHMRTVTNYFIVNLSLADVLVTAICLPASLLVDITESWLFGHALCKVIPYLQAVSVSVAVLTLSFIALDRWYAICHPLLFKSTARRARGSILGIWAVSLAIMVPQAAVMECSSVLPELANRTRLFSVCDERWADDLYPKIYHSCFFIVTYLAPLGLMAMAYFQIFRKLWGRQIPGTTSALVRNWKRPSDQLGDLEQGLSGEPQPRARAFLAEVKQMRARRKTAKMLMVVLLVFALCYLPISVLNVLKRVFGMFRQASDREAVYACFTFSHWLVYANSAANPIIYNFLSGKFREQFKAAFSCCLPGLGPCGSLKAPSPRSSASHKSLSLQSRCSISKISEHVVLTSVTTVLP

In another experiment the target is human orexin-2 receptor (Homo sapiens (Human), UniProt O43614). The experiment is described as above. It counts as cell-based. The following applies: CHO cells, 3 nM orexin-A, compound incubation 120 min; marked values are geometric means of n = 2-6; read-out: IC50 OX2.
Sequence of human orexin-2 receptor (O43614 whole entry): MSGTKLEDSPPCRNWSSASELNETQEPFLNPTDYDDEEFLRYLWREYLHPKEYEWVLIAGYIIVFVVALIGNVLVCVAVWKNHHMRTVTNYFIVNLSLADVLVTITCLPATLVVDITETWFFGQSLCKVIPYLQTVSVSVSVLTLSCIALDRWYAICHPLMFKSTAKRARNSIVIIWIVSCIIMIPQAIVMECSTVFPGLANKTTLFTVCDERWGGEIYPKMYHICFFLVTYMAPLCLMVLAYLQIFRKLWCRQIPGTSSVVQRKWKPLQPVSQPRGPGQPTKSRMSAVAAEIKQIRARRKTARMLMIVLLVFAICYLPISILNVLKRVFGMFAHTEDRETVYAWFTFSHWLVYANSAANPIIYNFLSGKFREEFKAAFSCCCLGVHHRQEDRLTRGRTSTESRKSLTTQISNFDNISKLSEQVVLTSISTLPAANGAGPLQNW

Take `COc1cccc(OC)c1C1CCCC(=O)N1Cc1ccnc(-c2ccccn2)c1` (stereo not drawn) [Example 50, 1-([2,2′-bipyridin]-4-ylmethyl)-6-(2,6-dimethoxyphenyl)piperidin-2-one]: the IC50 on human orexin-1 receptor turned out to be 39 nM; on human orexin-2 receptor, 119 nM.
As to `COc1cccc(OC)c1C1CCCC(=O)N1Cc1ccnc(-n2cccn2)c1` (stereo not drawn) [Example 52, 1-((2-(1H-pyrazol-1-yl)pyridin-4-yl)methyl)-6-(2,6-dimethoxyphenyl)piperidin-2-one], the IC50 at human orexin-1 receptor stood at 14 nM; on human orexin-2 receptor it was 80 nM.
On to `COc1ccnc(OC)c1C1CCCC(=O)N1Cc1cccc(-c2nccs2)c1` (stereo not drawn) [Example 53, 6-(2,4-dimethoxypyridin-3-yl)-1-(3-(thiazol-2-yl)benzyl)piperidin-2-one], for which the IC50 on human orexin-1 receptor amounted to 33 nM; on human orexin-2 receptor, 22 nM.
On to `COc1ccnc(OC)c1C1CCCC(=O)N1Cc1cccc(-c2csc(C)n2)c1` (stereo not drawn) [Example 54, 6-(2,4-dimethoxypyridin-3-yl)-1-(3-(2-methylthiazol-4-yl)benzyl)piperidin-2-one], for which the IC50 was found to be 15 nM at human orexin-1 receptor and 13 nM on human orexin-2 receptor.
With `COc1ccnc(OC)c1C1CCCC(=O)N1Cc1cccc(-c2ccccn2)c1` (stereo not drawn) [Example 55, 6-(2,4-dimethoxypyridin-3-yl)-1-(3-(pyridin-2-yl)benzyl)piperidin-2-one], the results for the IC50 on human orexin-1 receptor and on human orexin-2 receptor were 96 nM and 95 nM, respectively.
With `COc1ccnc(OC)c1C1CCCC(=O)N1Cc1csc(-c2ccccc2)n1` (stereo not drawn) [Example 56, 6-(2,4-dimethoxypyridin-3-yl)-1-((2-phenylthiazol-4-yl)methyl)piperidin-2-one], the IC50 on human orexin-1 receptor was 141 nM; on human orexin-2 receptor, 6 nM.
Turning to `COc1ccnc(OC)c1C1CCCC(=O)N1Cc1ccc2oc3ccccc3c2c1` (stereo not drawn) [Example 57, 1-(dibenzo[b,d]furan-2-ylmethyl)-6-(2,4-dimethoxypyridin-3-yl)piperidin-2-one], the half-inhibitory concentration (IC50) was determined as 5 nM on human orexin-1 receptor and 3 nM on human orexin-2 receptor.
Turning to `COc1ccnc(OC)c1C1CCCC(=O)N1Cc1ccc2nc(C)sc2c1` (stereo not drawn) [Example 58, 6-(2,4-dimethoxypyridin-3-yl)-1-((2-methylbenzo[d]thiazol-6-yl)methyl)piperidin-2-one], the IC50 came out at 2560 nM on human orexin-1 receptor and 1530 nM on human orexin-2 receptor.
With `COc1ccnc(OC)c1C1CCCC(=O)N1Cc1ccc(F)c(-c2ccccn2)c1` (stereo not drawn) [Example 59, 6-(2,4-dimethoxypyridin-3-yl)-1-(4-fluoro-3-(pyridin-2-yl)benzyl)piperidin-2-one], the IC50 on human orexin-1 receptor was 207 nM; at human orexin-2 receptor it was 135 nM.
For `COc1ccnc(OC)c1C1CCCC(=O)N1Cc1cccc(-c2ccccc2)c1` (stereo not drawn) [Example 60, 1-([1,1′-biphenyl]-3-ylmethyl)-6-(2,4-dimethoxypyridin-3-yl)piperidin-2-one], the IC50 at human orexin-1 receptor came to 39 nM; at human orexin-2 receptor it was 34 nM.
For the compound `COc1cncc(OC)c1C1CCCC(=O)N1Cc1cccc(-c2nccs2)c1` (stereo not drawn) [Example 61, 6-(3,5-dimethoxypyridin-4-yl)-1-(3-(thiazol-2-yl)benzyl)piperidin-2-one], the values for the IC50 at human orexin-1 receptor and at human orexin-2 receptor were 40 nM and 26 nM, respectively.
For `COc1cncc(OC)c1C1CCCC(=O)N1Cc1cccc(-c2csc(C)n2)c1` (stereo not drawn) [Example 62, 6-(3,5-dimethoxypyridin-4-yl)-1-(3-(2-methylthiazol-4-yl)benzyl)piperidin-2-one], the IC50 was found to be 25 nM on human orexin-1 receptor and 33 nM on human orexin-2 receptor.
For the compound `COc1cncc(OC)c1C1CCCC(=O)N1Cc1cccc(-c2ccccn2)c1` (stereo not drawn) [Example 63, 6-(3,5-dimethoxypyridin-4-yl)-1-(3-(pyridin-2-yl)benzyl)piperidin-2-one], the IC50 was determined as 135 nM at human orexin-1 receptor and 90 nM on human orexin-2 receptor.
Turning to `COc1cncc(OC)c1C1CCCC(=O)N1Cc1csc(-c2ccccc2)n1` (stereo not drawn) [Example 64, 6-(3,5-dimethoxypyridin-4-yl)-1-((2-phenylthiazol-4-yl)methyl)piperidin-2-one], the IC50 was found to be 618 nM on human orexin-1 receptor and 246 nM on human orexin-2 receptor.
Take `COc1cncc(OC)c1C1CCCC(=O)N1Cc1ccc2oc3ccccc3c2c1` (stereo not drawn) [Example 65, 1-(dibenzo[b,d]furan-2-ylmethyl)-6-(3,5-dimethoxypyridin-4-yl)piperidin-2-one]: the results for the IC50 on human orexin-1 receptor and on human orexin-2 receptor were 6 nM and 1 nM, respectively.
In the case of `COc1cncc(OC)c1C1CCCC(=O)N1Cc1cccc(-n2cccn2)n1` (stereo not drawn) [Example 66, 1-((6-(1H-pyrazol-1-yl)pyridin-2-yl)methyl)-6-(3,5-dimethoxypyridin-4-yl)piperidin-2-one], the results for the IC50 at human orexin-1 receptor and at human orexin-2 receptor were 3100 nM and 3700 nM, respectively.
On the same counts, the results for `COc1cncc(OC)c1C1CCCC(=O)N1Cc1cccc(-n2nccn2)c1` (stereo not drawn) [Example 67, 1-(3-(2H-1,2,3-triazol-2-yl)benzyl)-6-(3,5-dimethoxypyridin-4-yl)piperidin-2-one] are 163 nM and 156 nM.
Turning to `COc1cncc(OC)c1C1CCCC(=O)N1Cc1cccc(-c2ccccc2)c1` (stereo not drawn) [Example 68, 1-([1,1′-biphenyl]-3-ylmethyl)-6-(3,5-dimethoxypyridin-4-yl)piperidin-2-one], the results for the IC50 at human orexin-1 receptor and on human orexin-2 receptor were 45 nM and 31 nM, respectively.
On the same counts, the results for `COc1cccc(OC)c1C1CCCC(=O)N1Cc1cnc(OC(F)F)c(C)c1` (stereo not drawn) [Example 69, 1-((6-(difluoromethoxy)-5-methylpyridin-3-yl)methyl)-6-(2,6-dimethoxyphenyl)piperidin-2-one] are 247 nM and 77 nM.
On the same counts, the results for `COc1cccc(OC)c1C1CCCC(=O)N1Cc1csc(C)n1` (stereo not drawn) [Example 71, 6-(2,6-dimethoxyphenyl)-1-((2-methylthiazol-4-yl)methyl)piperidin-2-one] are greater than 12600 nM and 6190 nM.
For `COc1cccc(OC)c1C1CCCCC(=O)N1Cc1cccc(-c2ccccc2)c1` (stereo not drawn) [Example 72, 1-([1,1′-biphenyl]-3-ylmethyl)-7-(2,6-dimethoxyphenyl)azepan-2-one], the IC50 on human orexin-1 receptor was 3 nM; at human orexin-2 receptor, 12 nM.
As for `COc1cccc(OC)c1C1CCCCC(=O)N1Cc1ccc(Oc2ccccc2)cc1` (stereo not drawn) [Example 73, 7-(2,6-dimethoxyphenyl)-1-(4-phenoxybenzyl)azepan-2-one], the IC50 on human orexin-1 receptor was 186 nM; at human orexin-2 receptor, 187 nM.
Regarding `COc1cccc(OC)c1C1CCCCC(=O)N1Cc1cccc(Oc2ccccc2)c1` (stereo not drawn) [Example 74, 7-(2,6-dimethoxyphenyl)-1-(3-phenoxybenzyl)azepan-2-one], the IC50 stood at 137 nM at human orexin-1 receptor and 98 nM at human orexin-2 receptor.
As to `COc1cccc(OC)c1C1CCCCC(=O)N1Cc1ccc2ccccc2c1` (stereo not drawn) [Example 75, 7-(2,6-dimethoxyphenyl)-1-(naphthalen-2-ylmethyl)azepan-2-one], the IC50 at human orexin-1 receptor was determined as 12 nM; at human orexin-2 receptor, 32 nM.
As to `COc1cccc(OC)c1C1CCCCC(=O)N1Cc1ccc(-c2ccccc2)cc1` (stereo not drawn) [Example 77, 1-([1,1′-biphenyl]-4-ylmethyl)-7-(2,6-dimethoxyphenyl)azepan-2-one], the IC50 at human orexin-1 receptor turned out to be 305 nM; at human orexin-2 receptor, 188 nM.
Take `COc1cccc(OC)c1C1CCCCC(=O)N1Cc1ccccc1-c1ccccc1` (stereo not drawn) [Example 78, 1-([1,1′-biphenyl]-2-ylmethyl)-7-(2,6-dimethoxyphenyl)azepan-2-one]: the IC50 came to 323 nM on human orexin-1 receptor and 806 nM on human orexin-2 receptor.
Turning to `COc1cccc(OC)c1C1CCCCC(=O)N1Cc1ccc2ccccc2n1` (stereo not drawn) [Example 79, 7-(2,6-dimethoxyphenyl)-1-(quinolin-2-ylmethyl)azepan-2-one], the IC50 on human orexin-1 receptor turned out to be 21 nM; at human orexin-2 receptor, 82 nM.
With `COc1cccc(OC)c1C1CCCCC(=O)N1Cc1cnc2ccccc2c1` (stereo not drawn) [Example 80, 7-(2,6-dimethoxyphenyl)-1-(quinolin-3-ylmethyl)azepan-2-one], the concentration for half-maximal inhibition (IC50) is 715 nM on human orexin-1 receptor and 1040 nM on human orexin-2 receptor.
Turning to `COc1cccc(OC)c1C1CCCCC(=O)N1Cc1ccnc(-c2ccccc2)c1` (stereo not drawn) [Example 81, 7-(2,6-dimethoxyphenyl)-1-((2-phenylpyridin-4-yl)methyl)azepan-2-one], the IC50 worked out at 7 nM at human orexin-1 receptor and 58 nM at human orexin-2 receptor.
Consider `COc1cccc(OC)c1C1CCCCC(=O)N1Cc1cccc(-c2ccccc2)n1` (stereo not drawn) [Example 82, 7-(2,6-dimethoxyphenyl)-1-((6-phenylpyridin-2-yl)methyl)azepan-2-one], for which the IC50 on human orexin-1 receptor amounted to 7 nM; at human orexin-2 receptor it was 26 nM.
On the same counts, the results for `COc1cccc(OC)c1C1CCCCC(=O)N1Cc1cccc(-c2ncccn2)c1` (stereo not drawn) [Example 83, 7-(2,6-dimethoxyphenyl)-1-(3-(pyrimidin-2-yl)benzyl)azepan-2-one] are 3 nM and 19 nM.
In the case of `COc1cccc(OC)c1C1CCCCC(=O)N1Cc1cccc(-c2ccccn2)c1` (stereo not drawn) [Example 84, 7-(2,6-dimethoxyphenyl)-1-(3-(pyridin-2-yl)benzyl)azepan-2-one], the IC50 at human orexin-1 receptor was determined as 3 nM; on human orexin-2 receptor, 7 nM.
For `COc1cccc(OC)c1C1CCCCC(=O)N1Cc1cccc(-c2nccs2)c1` (stereo not drawn) [Example 85, 7-(2,6-dimethoxyphenyl)-1-(3-(thiazol-2-yl)benzyl)azepan-2-one], the IC50 turned out to be 2 nM at human orexin-1 receptor and 3 nM on human orexin-2 receptor.
In the case of `COc1cccc(OC)c1C1CCCCC(=O)N1Cc1ccc2c(c1)c1ccccc1n2C` (stereo not drawn) [Example 86, 7-(2,6-dimethoxyphenyl)-1-((9-methyl-9H-carbazol-3-yl)methyl)azepan-2-one], the IC50 at human orexin-1 receptor was found to be 45 nM; at human orexin-2 receptor, 71 nM.
Take `COc1cccc(OC)c1C1CCCCC(=O)N1Cc1cccc(-c2cccnc2)c1` (stereo not drawn) [Example 87, 7-(2,6-dimethoxyphenyl)-1-(3-(pyridin-3-yl)benzyl)azepan-2-one]: the IC50 on human orexin-1 receptor was 21 nM; on human orexin-2 receptor it was 46 nM.
In the case of `COc1cccc(OC)c1C1CCCCC(=O)N1Cc1cccc(N2CCCCC2)c1` (stereo not drawn) [Example 88, 7-(2,6-dimethoxyphenyl)-1-(3-(piperidin-1-yl)benzyl)azepan-2-one], the figures for the IC50 on human orexin-1 receptor and at human orexin-2 receptor were 12 nM and 58 nM, respectively.

For orientation: IC50 means the point on the concentration scale where inhibition reaches its midpoint.

The values are drawn from US9242970B2 (ACTELION PHARMACEUTICALS LTD., priority 2010, dated 2016).
